According to patent publication US5258382A, “Tetrahydropyrrolo[1,2-a]pyrazine-4-spiro-3'-pyrrolidine derivatives, processes for the preparation thereof and pharmaceutical compositions containing the same” (Dainippon Pharmaceutical Co., Ltd., priority 1991, dated 1993):
Read-outs that look alike come from different tables or passages of the source.

What was measured:
sorbitol accumulation = assay: Inhibitory activity on sorbitol accumulation (in vivo), sciatic nerve of streptozotocin-diabetic rats; parameters: species or system Male Wistar rats; conditions: for Inhibition (%) of sorbitol accumulation: oral, once a day for 5 days, sciatic nerve, 4 hours after final administration; for inhibitory activity on sorbitol accumulation relative to (±)-sorbinil: compared with (±)-sorbinil; for duration of effect: rat, in vivo
Description: Male Wistar rats (200-250 g) were used in groups of 4 animals each. The rats were made diabetic by single i.v. injection of streptozotocin (40 mg/kg) freshly dissolved in physiological saline.
From one week after the induction of diabetes, the rats were orally given test compounds, suspended in 0.5% tragacanth solution, once a day for 5 days. […] The activity of test compounds was expressed as the inhibition percent of sorbitol accumulation ar given doses, which was calculated according to the following equation.
Inhibition %=(S-T)/(S-N)×100
S: Sorbitol content in sciatic nerve from diabetic control
T: Sorbitol content in sciatic nerve from diabetic rats given test compounds
N: Sorbitol content in sciatic nerve from normal rats.

Aldose reductase = target: T1, Aldose reductase (Sus scrofa, UniProt P80276); assay: Aldose reductase inhibitory activity (in vitro); format: biochemical, porcine
T1 construct: Lenses isolated from porcine eyes (Tokyo Sibaura Zouki Co., Ltd., Japan) were homogenized; tissue Tokyo Sibaura Zouki Co., Ltd., Japan (porcine eyes); host or cells: porcine lens
Description: Lenses isolated from porcine eyes (Tokyo Sibaura Zouki Co., Ltd., Japan) were homogenized with 5 mM phosphate buffer (pH 7.4) containing 2 mM mercaptoethanol, and centrifuged at 10,200 g for 10 minutes. The supernatant was sequentially precipitated with ammonium sulfate at 30%, 40% and 60% saturation. The precipitate at 60% saturation was dissolved in a homogenizing buffer and used as a crude enzyme preparation. The unit of enzyme activity was defined as the amount of enzyme which oxidized 1 μmoles of NADPH/minute under the following assay condition.
The standard reaction mixture was composed of 100 mM phosphate buffer (pH 6.5), 0.2 mM NADPH, 1.5 mM D,L-glyceraldehyde, 0.4M lithium sulfate, enzyme solution (7.0 mU/ml) and test compounds at various concentrations. The reaction mixture was incubated at 37° C., and the decrease in absorbance at 340 nm was monitored by a spectrophotometer (Hitachi 150-20). The enzyme activity was calculated based upon the rate of decrease in the absorbance over a period of 1 minute from 1 minute after the onset of the enzyme reaction.

Acute toxicity, oral = conditions: 1 g/kg oral, suspended in 0.5% tragacanth; observed for 7 days
Text: Male ddY mice (18-25 g) were used in groups of 5 animals each. The compounds of Examples 1 (21) and 22, suspended in 0.5% tragacanth solution, were orally administered at a dose of 1 g/kg to the animals.

[1] = crude enzyme from porcine lenses, D,L-glyceraldehyde 1.5 mM, NADPH 0.2 mM, pH 6.5, 37° C., read-out: IC50 (aldose reductase inhibitory activity)

SMILES	Inhibition (%) of sorbitol accumulation (sorbitol accumulation; 30 mg/kg/day) [%]	inhibitory activity on sorbitol accumulation relative to (±)-sorbinil (sorbitol accumulation)	IC50 (Aldose reductase; [1]) [nM]	further results
O=C1CC2(C(=O)N1)C(=O)N(Cc1ccc(Cl)c(Cl)c1)C(=O)c1cccn12 (centres unmarked) [Example 24, 2-(3,4-dichlorobenzyl)-[1,2,3,4-tetrahydropyrrolo[1,2-a]pyrazine-4-spiro-3'-pyrrolidine]-1,2',3,5'-tetrone]	111.8	equipotent to or more potent than (±)-sorbinil	23	Inhibition (%) of sorbitol accumulation (sorbitol accumulation; 1.0 mg/kg/day): 70.9%
O=C1CC2(C(=O)N1)C(=O)N(Cc1ccc(Br)cc1F)C(=O)c1ccc(Cl)n12 (centres unmarked) [Example 27, 2-(4 bromo-2-fluorobenzyl)-6-chloro-[1,2,3,4-tetrahydropyrrolo[1,2-a]pyrazine-4-spiro-3'-pyrrolidine]-1,2',3,5-tetrone]			35	
O=C1CC2(C(=O)N1)C(=O)N(Cc1ccc(Br)cc1F)C(=O)c1cc(Br)cn12 (centres unmarked) [Example 20, 7-bromo-2-(4-bromo-2-fluorobenzyl)-[1,2,3,4-tetrahydropyrrolo[1,2-a]pyrazine-4-spiro-3'-pyrrolidine]-1,2',3,5'-tetrone]			100	
O=C1CC2(C(=O)N1)C(=O)N(Cc1ccc(Br)cc1F)C(=O)c1cccn12 (centres unmarked) [Example 1, 2-(4-bromo-2-fluorobenzyl)-[1,2,3,4-tetrahydropyrrolo[1,2-a]pyrazine-4-spiro-3'-pyrrolidine]-1,2',3,5'-tetrone]	114.6	equipotent to or more potent than (±)-sorbinil		Inhibition (%) of sorbitol accumulation (sorbitol accumulation; 1.0 mg/kg/day): 104.7%; duration of effect (sorbitol accumulation): long-lasting; IC50 (Aldose reductase): 50 nM; mortality (Acute toxicity, oral): None of the mice died during this period
O=C1CC2(C(=O)N1)C(=O)N(Cc1ccc(Br)cc1F)C(=O)c1ccc(Br)n12 (centres unmarked) [Example 26, 6-bromo-2-(4-bromo-2-fluorobenzyl)-[1,2,3,4-tetrahydropyrrolo[1,2-a]pyrazine-4-spiro-3'-pyrrolidine]-1,2',3,5'-tetrone]			40	
O=C1CC2(C(=O)N1)C(=O)N(Cc1ccc(C(F)(F)F)cc1)C(=O)c1cccn12 (centres unmarked) [Example 9]			80	
O=C1NC(=O)C2(CCOc3ccc(F)cc32)N1 (racemic) [(±)-Sorbinil, 6-fluoro-2,3-dihydrospiro[4H-1-benzopyran-4,4'-imidazolidine]-2',5'-dione, reference compound]	106.9			Inhibition (%) of sorbitol accumulation (sorbitol accumulation; 3.0 mg/kg/day): 60.7%
O=C1CC2(C(=O)N1)C(=O)N(Cc1ccc(F)cc1)C(=O)c1cccn12 (centres unmarked) [Example 6]	55.8		120	
O=C1CC2(C(=O)N1)C(=O)N(Cc1ccc(F)cc1F)C(=O)c1cccn12 (centres unmarked) [Example 10]	98.0		72	Inhibition (%) of sorbitol accumulation (sorbitol accumulation; 3.0 mg/kg/day): 33.3%
CC(=C\c1ccccc1)/C=C1/SC(=S)N(CC(=O)O)C1=O [Epalrestat, (E,E)-5-(2-methyl-3-phenyl-2-propenylidene) 4-oxo-2-thioxo-3-thiazolidineacetic acid, reference compound]				Inhibition (%) of sorbitol accumulation (sorbitol accumulation; 200 mg/kg/day): 5.7%; IC50 (Aldose reductase): 73 nM
O=C1CC2(C(=O)N1)C(=O)N(Cc1ccc(Br)cc1F)C(=O)c1cccn12 (single isomer, unassigned) [Example 22, an enantiomer of 2-(4-bromo-2-fluorobenzyl)-[1,2,3,4-tetrahydropyrrolo[1,2-a]pyrazine-4-spiro-3'-pyrrolidine]-1,2',3,5'-tetrone]		equipotent to or more potent than (±)-sorbinil		Inhibition (%) of sorbitol accumulation (sorbitol accumulation; 0.3 mg/kg/day): 77.6%; Inhibition (%) of sorbitol accumulation (sorbitol accumulation; 1.0 mg/kg/day): 107.3%; duration of effect (sorbitol accumulation): long-lasting; IC50 (Aldose reductase): 39 nM; mortality (Acute toxicity, oral): None of the mice died during this period
O=C1CC2(C(=O)N1)C(=O)N(Cc1ccc(Br)cc1)C(=O)c1cccn12 (centres unmarked) [Example 8, 2-(4-bromobenzyl)-[1,2,3,4-tetrahydropyrrolo[1,2-a]pyrazine-4-spiro-3'-pyrrolidine]-1,2',3,5'-tetrone]		equipotent to or more potent than (±)-sorbinil	47	Inhibition (%) of sorbitol accumulation (sorbitol accumulation; 3.0 mg/kg/day): 104.7%
O=C1CC2(C(=O)N1)C(=O)N(Cc1ccc(Cl)cc1F)C(=O)c1cccn12 (centres unmarked) [Example 16, 2-(4 chloro 2-fluorobenzyl)-[1,2,3,4-tetrahydropyrrolo[1,2-a]pyrazine-4-spiro-3'-pyrrolidine]-1,2',3,5'-tetrone]		equipotent to or more potent than (±)-sorbinil	41	Inhibition (%) of sorbitol accumulation (sorbitol accumulation; 1.0 mg/kg/day): 61.0%
Cc1ccc(CN2C(=O)c3cccn3C3(CC(=O)NC3=O)C2=O)cc1 (centres unmarked) [Example 11]	65.8		52	
O=C1CC2(C(=O)N1)C(=O)N(Cc1ccc(Cl)cc1)C(=O)c1cccn12 (centres unmarked) [Example 7]	104.6	equipotent to or more potent than (±)-sorbinil	33	Inhibition (%) of sorbitol accumulation (sorbitol accumulation; 3.0 mg/kg/day): 69.7%
COc1ccc(CN2C(=O)c3cccn3C3(CC(=O)NC3=O)C2=O)cc1 (centres unmarked) [Example 12]			46	
O=C1CC2(C(=O)N1)C(=O)N(Cc1ccc([N+](=O)[O-])cc1)C(=O)c1cccn12 (centres unmarked) [Example 15]	102.2		110	Inhibition (%) of sorbitol accumulation (sorbitol accumulation; 3.0 mg/kg/day): 7.4%
COc1ccc(CN2C(=O)c3cccn3C3(CC(=O)NC3=O)C2=O)cc1OC (centres unmarked) [Example 13]			110	
O=C1CC2(C(=O)N1)C(=O)N(Cc1ccc(Br)cc1F)C(=O)c1cc(Cl)cn12 (centres unmarked) [Example 19, 2-(4-bromo-2-fluorobenzyl)-7-chloro-[1,2,3,4-tetrahydropyrrolo[1,2-a]pyrazine-4-spiro-3'-pyrrolidine]-1,2',3,5'-tetrone]			50	
O=C1CC2(C(=O)N1)C(=O)N(Cc1cccc(Br)c1)C(=O)c1cccn12 (centres unmarked) [Example 18]			37	
O=C1CC2(C(=O)N1)C(=O)N(Cc1ccccc1Br)C(=O)c1cccn12 (centres unmarked) [Example 17]			52	
O=C1CC2(C(=O)N1)C(=O)N(Cc1ccccc1Cl)C(=O)c1cccn12 (centres unmarked) [Example 2, 2-(2-chlorobenzyl)-[1,2,3,4-tetrahydropyrrolo[1,2-a]pyrazine-4-spiro-3'-pyrrolidine]-1,2',3,5'-tetrone]	97.1		33	Inhibition (%) of sorbitol accumulation (sorbitol accumulation; 3.0 mg/kg/day): 30.5%
O=C1CC2(C(=O)N1)C(=O)N(Cc1ccccc1)C(=O)c1cccn12 (centres unmarked) [Example 3]	69.1		99	
O=C1CC2(C(=O)N1)C(=O)N(Cc1ccccc1F)C(=O)c1cccn12 (centres unmarked) [Example 4]		equipotent to or more potent than (±)-sorbinil	61	Inhibition (%) of sorbitol accumulation (sorbitol accumulation; 1.0 mg/kg/day): 47.2%; Inhibition (%) of sorbitol accumulation (sorbitol accumulation; 10 mg/kg/day): 73.5%
O=C1CC2(C(=O)N1)C(=O)N(Cc1cccc(Cl)c1)C(=O)c1cccn12 (centres unmarked) [Example 5]	99.4	equipotent to or more potent than (±)-sorbinil	31	Inhibition (%) of sorbitol accumulation (sorbitol accumulation; 3.0 mg/kg/day): 44.2%
